# Laboratory results from patent US8455616B2, “Nuclear translocation peptide” (National Center for Global Health and Medicine, priority 2007, dated 2013).
# Ends that are not written are not given here.
# Legend:
# HeLa cells [1] = assay: Cytotoxicity test (damage to intracellular DNA, anti-γ-H2AX staining); type: cell-based, human; conditions: HeLa cells incubated 2 days with peptide, fragmented double-stranded DNA stained with anti-γ-H2AX antibody, FIG. 8
# Description: Testing of the peptide of the present invention for damage to intracellular DNA was performed in the following manner. • (Day 1) HeLa cells were seeded onto a dish at a concentration of 5×10^4 cells/dish, and cultured in 10% FCS/DMEM medium (2 mL). • (Day 2) Recombinant Vpr (protein derived from Vpr), C45D18 (Peptide 9), and LR20 (Peptide 1) were added, and the cells were incubated for 2 days. • (Day 4) The following sequence of treatments was performed on the cells: The dish was washed with PBS→the cells were fixed with 4% paraformaldehyde→after incubation for 20 min on ice, the cells were washed with PBS→200 μL of 1% Triton X-100/2M HCl solution was added, and the cells were incubated at room temperature for 30 min→blocking with 200 μL of 1% BSA was performed at room temperature for 1 h→anti-γ-H2AX antibody solution was added, and the fragmented double-stranded DNA was stained (37° C. for 30 min)→cy3-anti-mouse IgG solution was added, and the cells were incubated at room temperature for 30 min→the nuclei were stained with DAPI/PBST (3 min)→the cells were mounted on glass slides.
# In FIG. 8 the stained parts indicate fragmented DNA.
# [2] = cited from earlier work
# HeLa cells [3] = assay: Cellular and nuclear translocation capability of magnetic particles in HeLa cells; type: cell-based, human; conditions: peptide-CMDM conjugates, iron 0.7 mg/mL, thymidine-arrested HeLa cells, 18 h exposure, T2 relaxation time by NMR, FIG. 1
# Description: With respect to the amount of cellular and nuclear translocation of the aforementioned peptide-magnetic nanoparticle conjugate, the translocation capability of the peptide of the present invention can be compared with that of a previous PTD by adding the conjugate to cultured cells, separating and recovering the cytoplasm and nuclei after letting the culture stand for a set period of time, measuring the T2 relaxation time by NMR, and measuring the amount of magnetic nanoparticles taken up by the cells.
# After 18 h of exposure, the cells were washed with PBS and recovered, and centrifugal separation (2000 rpm for 5 min) was performed to precipitate the cells into pellets. After the cells were resuspended by adding 700 mL of PBS, they were lysed using a Dounce homogenizer and centrifuged (2000 rpm for 5 min) into pellets. […] Then the T2 relaxation time of each resulting fraction was measured by NMR. Concurrently, the protein concentration of each fraction was measured by BSA protein assay.
# Because a fixed relation is established between T2 relaxation time and magnetic substance concentration, the magnetic substance concentration can be calculated by assuming that the T2 relaxation of the sample is the same before and after the test. The calculated concentration was corrected further using the protein concentration.
molecule,measurement,setting,value
"RIFIHFRIGC [Peptide 4, R I F I H F R I G C]",DNA damage (cytotoxicity),HeLa cells [1],no damage to DNA was seen
"Peptide 12: PTD peptide discovered during research to enhance the function of the Tat peptide (Mukai et al.), synthesized with additional GGC (THRLPRRRRRR; YM-3 peptide)",cellular translocation capability relative to the Tat peptide,"[2]; Mukai et al., Biol. Pharm. Bull. 29(8), 1570 (2006)",approximately three times higher than that of the Tat peptide
R I L Q Q L L F I H F R I G C [Peptide 3],cellular and nuclear translocation capability,HeLa cells [3],best cellular and nuclear translocation capability
DTWAGVEAIIRILQQLLFIHFRIGCRH [Peptide 9],translocation capability relative to a protein originating in Vpr,"[2]; Taguchi et al., Biochem. Biophys. Res. Comm., 320, 18 (2004)",stronger translocation capability than a protein originating in Vpr
same,translocation capability of conjugates with enzymatic proteins relative to the Tat peptide,"[2]; conjugates of C45D18 and enzymatic proteins, into a cell and into a nucleus, Taguchi et al. (2004)",greater than that of the Tat peptide
"CC[C@H](C)[C@H](NC(=O)[C@H](CCCNC(=N)N)NC(=O)[C@H](CO)NC(=O)[C@H](Cc1c[nH]cn1)NC(=O)[C@H](CCCNC(=N)N)NC(=O)[C@H](CS)NC(=O)CNC(=O)[C@@H](NC(=O)[C@H](CCCNC(=N)N)NC(=O)[C@H](Cc1ccccc1)NC(=O)[C@H](Cc1c[nH]cn1)NC(=O)[C@@H](NC(=O)[C@H](Cc1ccccc1)NC(=O)[C@H](CC(C)C)NC(=O)[C@H](CC(C)C)NC(=O)[C@H](CCC(N)=O)NC(=O)[C@H](CCC(N)=O)NC(=O)[C@H](CC(C)C)NC(=O)[C@@H](NC(=O)[C@@H](N)CCCNC(=N)N)[C@@H](C)CC)[C@@H](C)CC)[C@@H](C)CC)C(=O)O [Peptide 1, RILQQLLFIHFRIGCRHSRI]",DNA damage (cytotoxicity),HeLa cells [1],extent of DNA damage is decreased
